Source: US12172986B2, “Splicing modulator antibody-drug conjugates and methods of use” (EISAI R&D MANAGEMENT CO., LTD., priority 2018, dated 2024)
Where “and” joins values, the source holds several entries; their conditions need not be identical. Equal entries are not always repeated.

What was measured:
THP1.1 = test: Payload cell potency and lethality CTGlo 72 h, THP1.1; format: cell-based; conditions: for CTGlo-AT S GMean LD50 (nM) 72 h THP1.1: payload
Ad2.1 pre-mRNA splicing = test: In vitro splicing (IVS) RT-qPCR, Ad2.1 pre-mRNA, HeLa nuclear extract; format: biochemical; conditions: payload of the ADC; read-out: qPCR-IVS-AT S Gmean IC50 (nm) Ad2.1 HELA.2
Protocol: HeLa nuclear extract preparation: HeLa S3 cell pellets were resuspended in hypotonic buffer (10 mM HEPES pH 7.9, 1.5 mM MgCl2, 10 mM KCl, 0.2 mM PMSF, 0.5 mM DTT) and the suspension was brought up to a total of 5 packed cell volume (PCV). After centrifugation, the supernatant was discarded, and the cells were brought up to 3 PCV with hypotonic buffer and incubated on ice for 10 min. Cells were lysed using a dounce homogenizer and then centrifuged. […] The nuclei were gently mixed for 30 min before centrifuging. The supernatant (nuclear extract) was then dialyzed into storage buffer (20 mM HEPES pH 7.9, 100 mM KCl, 0.2 mM EDTA, 20% glycerol, 0.2 mM PMSF, 0.5 mM DTT). Protein concentration was determined using NanoDrop 8000 UV-Vis spectrophotometer (ThermoFisher Scientific).
IVS: All Ad2-derived sequences (Pellizzoni et al. (1998) Cell 95(5):615-24) were cloned into pcDNA3.1(+) vector (Promega) using 5′ EcoRI and 3′ Xbal restriction sites. The plasmids were linearized using Xbal and used as DNA templates in in vitro transcription reactions. The FtzΔi intron-less plasmid (Luo and Reed (1999) 96(26):14937-42) was linearized using EcoRI. All RNAs were in vitro transcribed and then purified using MEGAScript T7 (Invitrogen) and MegaClear (Invitrogen) kits, respectively. For splicing reactions using Ad2 variant pre-mRNAs, 1 μL reactions were prepared using 8 μg nuclear extracts prepared from HeLa S3, 2 ng pre-mRNA, 0.2 ng FTZΔi, and varying concentrations of compounds or DMSO. After a 15 min pre-incubation at 30° C., 1 μL splicing activation buffer (0.5 mM ATP, 20 mM creatine phosphate, 1.6 mM MgCl2) was added, and the reactions were incubated for 90 min at 30° C. The reactions were then quenched with 13 μL DMSO, and 25 nL was used for RT-qPCR. RT-qPCR reactions were prepared using TaqMan RNA-to-CT 1-step kit (Life Technologies), RNA from splicing reactions, Ad2 (forward: [sequence]; reverse: [sequence]; probe: [sequence]) and Ftz (forward: [sequence]; reverse: [sequence]; probe: [sequence]) mRNA primer-probe sets. Prism 7 (Graphpad) was used for non-linear regression curve fitting of the formed spliced product and normalized to the control (DMSO) sample.

MOLP8 cells = test: Cell viability, CD138-expressing MOLP8; format: cell-based; conditions: for LD50 (nM) (payload) / Rmin (%) (payload): unconjugated payload of the ADC
Protocol: (§2) HCC1954 (American Type Culture Collection (ATCC)) breast ductal carcinoma cells were plated at 2000 cells/well in flat bottom 96-well tissue culture plates (Corning) in a total volume of 90 μL tissue culture medium supplemented with 10% fetal bovine serum (ThermoFisher Scientific). Cells were treated with a 3-fold serial dilution of compound from 200 nM to 0.03 nM. Each concentration was tested in triplicate. At the time of treatment, a plate of untreated cells was evaluated using CellTiter-Glo®2.0 Luminescent Cell Viability Assay according to the manufacturer's recommendations (Promega; #G9241). CellTiter-Glo® 2.0 reagent was added to the medium, incubated, and assayed on an EnVision Multilabel Reader (PerkinElmer). Values represent time zero (TO). […] Percentage growth inhibition was calculated as: [(T144-T0)/(C-TO)]×100 for concentrations for which T144>/=TO or [(T144-T0)/T0]×100 for concentrations for which T144<TO. The dose response curve plots were generated using Prism 7 (Graphpad) and fit using nonlinear regression analysis and the log(inhibitor) versus response-variable slope (four parameters).

[1] = Caco-2 permeability of ADC payload; format: in vitro ADME; conditions: human, Caco-2; payload, B-A/A-B; read-out: Eflux ratio
Protocol: (§1) Integrity of cell monolayer was confirmed by TEER (transepithelial electrical resistance) and Lucifer yellow. Payloads were spiked in duplicate at 10 μM, separately, on both sides of the cell monolayer. Permeability rates from the apical to basolateral (A-B) direction and the basolateral to apical (B-A) direction were determined by sampling aliquots from both chambers immediately after treatment (t=0) and following incubation for 2 hours. Samples were protein precipitated with organic solvent containing internal standard and analyzed by LC-MS/MS (SCIEX; API 5500). The area ratio responses of payload/internal standard over time in both directions were used to generate permeability (cm/see) values. Efflux ratio was calculated by dividing B-A/A-B. Control compounds for low and high permeability and efflux behaved as expected.

Caco-2 cells = test: Caco-2 permeability of ADC payload; format: in vitro ADME; conditions: for Perm. Mean Caco-2 A-B Perm (10e-6 cm/s) / Perm. Mean Caco-2 B-A Perm (10e-6 cm/s): corresponding free payload of the ADC; for Eflux ratio: payload, B-A/A-B; for Permeability Caco-2 A-B (10e-6 cm/s): Table 26, corresponding payload
Protocol: as §1

Ad2.2 pre-mRNA splicing = test: In vitro splicing (IVS) RT-qPCR, Ad2.2 pre-mRNA, HeLa nuclear extract; format: biochemical; conditions: payload of the ADC; read-out: qPCR-IVS-AT S GMean IC50 (nM) Ad2.2 HELA.2
Protocol: To evaluate payload activity in a cell-free system, an in vitro splicing assay was performed. The payloads were incubated with nuclear extracts and pre-mRNA substrate minigenes.
HeLa nuclear extract preparation: HeLa S3 cell pellets were resuspended in hypotonic buffer (10 mM HEPES pH 7.9, 1.5 mM MgCl2, 10 mM KCl, 0.2 mM PMSF, 0.5 mM DTT) and the suspension was brought up to a total of 5 packed cell volume (PCV). After centrifugation, the supernatant was discarded, and the cells were brought up to 3 PCV with hypotonic buffer and incubated on ice for 10 min. Cells were lysed using a dounce homogenizer and then centrifuged. […]. The nuclei were gently mixed for 30 min before centrifuging. The supernatant (nuclear extract) was then dialyzed into storage buffer (20 mM HEPES pH 7.9, 100 mM KCl, 0.2 mM EDTA, 20% glycerol, 0.2 mM PMSF, 0.5 mM DTT). Protein concentration was determined using NanoDrop 8000 UV-Vis spectrophotometer (ThermoFisher Scientific).
IVS: All Ad2-derived sequences (Pellizzoni et al. (1998) Cell 95(5):615-24) were cloned into pcDNA3.1(+) vector (Promega) using 5′ EcoRI and 3′ Xbal restriction sites. The plasmids were linearized using Xbal and used as DNA templates in in vitro transcription reactions. The FtzΔi intron-less plasmid (Luo and Reed (1999) 96(26):14937-42) was linearized using EcoRI. All RNAs were in vitro transcribed and then purified using MEGAScript T7 (Invitrogen) and MegaClear (Invitrogen) kits, respectively. For splicing reactions using Ad2 variant pre-mRNAs, 1 μL reactions were prepared using 8 μg nuclear extracts prepared from HeLa S3, 2 ng pre-mRNA, 0.2 ng FTZΔi, and varying concentrations of compounds or DMSO. After a 15 min pre-incubation at 30° C., 1 μL splicing activation buffer (0.5 mM ATP, 20 mM creatine phosphate, 1.6 mM MgCl2) was added, and the reactions were incubated for 90 min at 30° C. The reactions were then quenched with 13 μL DMSO, and 25 nL was used for RT-qPCR. RT-qPCR reactions were prepared using TaqMan RNA-to-CT 1-step kit (Life Technologies), RNA from splicing reactions, Ad2 (forward: […]; reverse: […]; probe: […]) and Ftz (forward: […]; reverse: […]; probe: […]) mRNA primer-probe sets. Prism 7 (Graphpad) was used for non-linear regression curve fitting of the formed spliced product and normalized to the control (DMSO) sample. […] In the presence of payload, a decrease in the amount of spliced product was observed.

PC3 cells = test: Cell viability, EPHA2-expressing PC3; format: cell-based; conditions: corresponding payload alone
Protocol: as §2

HCC1954 cells = test: Cell viability CellTiter-Glo, HCC1954; format: cell-based; conditions: unconjugated payload of the ADC
Protocol: as §2
(§3) HCC1954 (ATCC), 2000 cells/well), N87 (ATCC, 4000 cells/well), SKBR3 (ATCC, 3000 cells/well), and MCF7 (ATCC, 1500 cells/well) cell lines were used.

N87 cells = test: Cell viability CellTiter-Glo, N87; format: cell-based, human; conditions: unconjugated payload of the ADC
Protocol: as §2, §3

MCF7 cells = test: Cell viability CellTiter-Glo, HER2-negative MCF7; conditions: unconjugated payload of the ADC
Protocol: HCC1954 (American Type Culture Collection (ATCC)) breast ductal carcinoma cells were plated at 2000 cells/well in flat bottom 96-well tissue culture plates (Corning) in a total volume of 90 μL tissue culture medium supplemented with 10% fetal bovine serum (ThermoFisher Scientific). Cells were treated with a 3-fold serial dilution of compound from 200 nM to 0.03 nM. Each concentration was tested in triplicate. At the time of treatment, a plate of untreated cells was evaluated using CellTiter-Glo®2.0 Luminescent Cell Viability Assay according to the manufacturer's recommendations (Promega; #G9241). CellTiter-Glo® 2.0 reagent was added to the medium, incubated, and assayed on an EnVision Multilabel Reader (PerkinElmer). Values represent time zero (TO). […] Using the luminescence value at time zero (TO), DMSO control growth (C), and test growth in the presence of compound (T144), the percentage growth was calculated at each of the compound concentrations levels. Percentage growth inhibition was calculated as: [(T144-T0)/(C-TO)]×100 for concentrations for which T144>/=TO or [(T144-T0)/T0]×100 for concentrations for which T144<TO. The dose response curve plots were generated using Prism 7 (Graphpad) and fit using nonlinear regression analysis and the log(inhibitor) versus response-variable slope (four parameters).
as §3

[2] = Chemical stability of ADC payload, pH 5.5 buffer; conditions: Table 26; corresponding payload, pH 5.5, 37C, t1/2

SMILES	CTGlo-AT S GMean LD50 (nM) 72 h THP1.1 (THP1.1) [nM]	IC50 (Ad2.1 pre-mRNA splicing) [nM]	LD50 (nM) (payload) (MOLP8 cells)	Rmin (%) (payload) (MOLP8 cells)	efflux ratio at 2 h, 10 μM [1]	IC50 (Ad2.2 pre-mRNA splicing) [nM]	Payload LD50 (PC3 cells) [nM]	Payload LD50 (HCC1954 cells) [nM]	Payload Rmin (%) (HCC1954 cells)	Payload LD50 (N87 cells) [nM]	Payload LD50 (MCF7 cells) [nM]	Payload Rmin (%) (MCF7 cells)	pH 5.5 Stability (t1/2, 37C) [2]	Permeability Caco-2 A-B (10e-6 cm/s) (Caco-2 cells)	further results
CC[C@H](O)[C@@H](C)C1OC1C[C@@](C)(O)/C=C/C=C(\C)[C@H]1OC(=O)C[C@H](O)CC[C@@](C)(OC)[C@@H](OC(=O)N2CCNCC2)/C=C/[C@@H]1C (stereo in doubt) [D1, (2S,3S,6S,7R,10R,E)-10-hydroxy-2-((R,2E,4E)-6-hydroxy-7-((2S,3S)-3-((2R,3S)-3-hydroxypentan-2-yl)oxiran-2-yl)-6-methylhepta-2,4-dien-2-yl)-7-methoxy-3,7-dimethyl-12-oxooxacyclododec-4-en-6-yl piperazine-1-carboxylate]	41.408	17.6	25.712	−100.248	14.6	15.9	>400	5.485	−78.579% and −75.579%	>200	135.42	−63.414	–	–	GI50 (MOLP8 cells; Homo sapiens, MOLP-8, unconjugated payload of the ADC, read-out: GI50 (nM) (payload)): 6.88 nM; Perm. Mean Caco-2 A-B Perm (10e-6 cm/s) (Caco-2 cells): 0.14 10e-6 cm/s; Perm. Mean Caco-2 B-A Perm (10e-6 cm/s) (Caco-2 cells): 2.05 10e-6 cm/s; Eflux ratio (Caco-2 cells): 14.643
CC[C@H](O)[C@@H](C)C1OC1C[C@@](C)(O)/C=C/C=C(\C)[C@H]1OC(=O)C[C@H](O)CC[C@@](C)(OC(C)=O)[C@@H](OC(=O)N2CCNCC2)/C=C/[C@@H]1C (stereo in doubt) [D4, (2S,3S,6S,7R,10R,E)-7-acetoxy-10-hydroxy-2-((R,2E,4E)-6-hydroxy-7-((2S,3S)-3-((2R,3S)-3-hydroxypentan-2-yl)oxiran-2-yl)-6-methylhepta-2,4-dien-2-yl)-3,7-dimethyl-12-oxooxacyclododec-4-en-6-yl piperazine-1-carboxylate]	33.329	20.9	12.99	−101.935	–	17.3	>400	6.374	−81.34%	38.774	96.46	−60.923	4.5	0.1 10e-6 cm/s	Perm. Mean Caco-2 A-B Perm (10e-6 cm/s) (Caco-2 cells): 0.1 10e-6 cm/s; Perm. Mean Caco-2 B-A Perm (10e-6 cm/s) (Caco-2 cells): 1.79 10e-6 cm/s; Eflux ratio (Caco-2 cells): 17.9
CC(=O)N1CCC(n2nnc3c(F)cc(/C=C(\C)[C@H]4OC(=O)C[C@H](O)CC[C@H](C)[C@@H](OC(=O)N5CCNCC5)/C=C/[C@@H]4C)cc32)CC1 [D14]	25.594	10	8.5	−61	202	8.59	>400	–	–	>200	77.198	−61.886	–	–	GI50 (THP1.1; read-out: CTGlo-AT S GMean GI50 (nM) Ad2.2 HELA.2): 3.58 nM
CC(=O)N1CCC(n2nnc3c(F)cc(/C=C(\C)[C@H]4OC(=O)C[C@H](O)CC[C@H](C)[C@@H](OC(=O)N5CCN(C)CC5)/C=C/[C@@H]4C)cc32)CC1 [D15]	11.038	4.63	9.178	−100.198	–	4.93	>400	–	–	–	130.398	−68.503	7	3.4 10e-6 cm/s	–
C/C(=C\c1cc(F)cc(N2CCN(C(=O)Cn3cccn3)CC2)c1)[C@H]1OC(=O)C[C@H](O)CC[C@H](C)[C@@H](OC(=O)N2CCNCC2)/C=C/[C@@H]1C [D16]	21.46	16	–	–	32.4	15.1	–	2.037	−84.412%	>200	–	–	7	0.72 10e-6 cm/s	GI50 (HCC1954 cells; Homo sapiens): 0.358 nM; GI50 (N87 cells; Homo sapiens): 0.41 nM
C/C(=C\c1cc(F)cc(N2CCOCC2)c1)[C@H]1OC(=O)C[C@H](O)CC[C@H](C)[C@@H](OC(=O)N2CCN(C)CC2)/C=C/[C@@H]1C [D17]	24.908	17.9	–	–	0.896	9.44	–	–	–	–	–	–	7	20 10e-6 cm/s	–
CC[C@H](O)[C@@H](C)[C@H]1O[C@@H]1C[C@H](C)/C=C/C=C(\C)[C@H]1OC(=O)C[C@H](O)CC[C@@](C)(OC)[C@@H](OC(=O)N2CCN(C)CC2)/C=C/[C@@H]1C [D19, (2S,3S,6S,7R,10R,E)-10-hydroxy-2-((S,2E,4E)-7-((2R,3R)-3-((2R,3S)-3-hydroxypentan-2-yl)oxiran-2-yl)-6-methylhepta-2,4-dien-2-yl)-7-methoxy-3,7-dimethyl-12-oxooxacyclododec-4-en-6-yl 4-methylpiperazine-1-carboxylate]	–	–	4.58	−62.2	–	–	–	–	–	–	–	–	0.8	16 10e-6 cm/s	–
C/C(=C\c1cccc(S(=O)(=O)N2CCCC2)c1)[C@H]1OC(=O)C[C@H](O)CC[C@H](C)[C@@H](OC(=O)N2CCN(C)CC2)/C=C/[C@@H]1C [D34]	–	–	–	–	–	–	–	–	–	–	–	–	7	26 10e-6 cm/s	–
